From article PMC9518255 (Journal of Enzyme Inhibition and Medicinal Chemistry, 2022) come the findings set out here.

For series [1], the target named is Keap1-Nrf2 PPI (Keap1 Kelch domain protein / FITC-9mer Nrf2 peptide amide) (Homo sapiens, UniProt Q14145). The series can be described thus: Fluorescence polarisation. Type of series: binding. The settings on record: for inhibitory activities against Keap1-Nrf2 PPI compared to compound K3: FP assay, 5 and 50 μM, R2 substituent varied; for inhibition at 50 µM: read-out: inhibitory rate against Keap1-Nrf2 PPI. Background: In fluorescence polarisation assays a small probe gives low polarisation when free and higher when bound to something large.

Series [2] can be described thus: Metabolic stability in human liver microsomes. The series is classed as in vitro ADME. The settings on record: pH 7.4. For orientation: Microsomes from liver hold many membrane-bound enzymes, among them those of drug oxidation.

Chain of Keap1-Nrf2 PPI (Keap1 Kelch domain protein / FITC-9mer Nrf2 peptide amide) (Q14145 321-609 limits assumed): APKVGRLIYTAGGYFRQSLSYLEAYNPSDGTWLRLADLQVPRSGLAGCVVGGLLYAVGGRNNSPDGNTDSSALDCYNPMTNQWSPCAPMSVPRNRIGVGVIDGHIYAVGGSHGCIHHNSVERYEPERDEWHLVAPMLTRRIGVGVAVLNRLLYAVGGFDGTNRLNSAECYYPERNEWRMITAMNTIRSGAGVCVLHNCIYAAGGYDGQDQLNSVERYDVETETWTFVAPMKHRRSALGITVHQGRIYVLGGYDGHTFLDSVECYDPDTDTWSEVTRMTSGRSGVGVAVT

Take `COc1ccc(S(=O)(=O)Nc2ccc(NS(=O)(=O)c3ccc(C)cc3)cc2)cc1` [K11]: in series [1], the “inhibitory activities against Keap1-Nrf2 PPI compared to compound K3” value (“inhibitory activities … compared to compound K3” for short) is recorded as “markedly decreased”.

By IC50 is commonly meant the concentration that inhibits the measured activity by half. Higher therefore signals weaker potency. `COc1ccc(S(=O)(=O)Nc2ccc(NS(=O)(=O)c3cccnc3)cc2)cc1` [K18]: in series [1], the IC50 was roughly 31.5 µM, the “inhibitory activities … compared to compound K3” value was “slightly higher” and the inhibition at 50 µM amounted to 72%.

Take `COc1ccc(S(=O)(=O)Nc2ccc(NS(=O)(=O)c3ccc4ccccc4c3)cc2)cc1` [K16]: the “inhibitory activities … compared to compound K3” value in series [1] is on record as “markedly decreased”.

With `COc1ccc(S(=O)(=O)Nc2ccc(NS(=O)(=O)c3ccc(-c4ccccc4)cc3)cc2)cc1` [K14], the “inhibitory activities … compared to compound K3” value in series [1] is “markedly decreased”.

One may read the share remaining as the share of the starting amount still present when the sample was taken. Read a low share remaining as more turnover. Turning to `O=C(CCc1ccc(O)cc1)c1c(O)cc(O)cc1O` [PHL, Phloretin, reference compound], in series [1], the IC50 amounted to 8.67 µM. The same compound registered a fraction remaining at 0.5 h, 10 μM in series [2] of 10.3%.

On to `COc1ccc(S(=O)(=O)Nc2ccc(NS(=O)(=O)c3ccccc3)cc2)cc1` [K10], for which the “inhibitory activities … compared to compound K3” value in series [1] is “markedly decreased”.

Consider `COc1ccc(S(=O)(=O)Nc2ccc(NS(=O)(=O)c3cccc4cccnc34)cc2)cc1` [K17], for which the “inhibitory activities … compared to compound K3” value in series [1] is listed as “markedly decreased”.

`COc1ccc(S(=O)(=O)Nc2ccc(NS(=O)(=O)Cc3ccccc3)cc2)cc1` [K15]: the “inhibitory activities … compared to compound K3” value in series [1] is “markedly decreased”.

For `COc1ccc(S(=O)(=O)Nc2ccc(NS(=O)(=O)c3ccc(OC)cc3)cc2)cc1` [K3], in series [1], the IC50 turned out to be 36.3 µM and the inhibition at 50 µM was roughly 68%.

`COc1ccc(S(=O)(=O)Nc2ccc(NS(=O)(=O)c3ccc(OC)cc3)c(CCC(=O)O)c2)cc1` [KP-1]: the IC50 in series [1] was 0.74 µM. This counts as sub-micromolar.
